Columns and labels:
[1] = target: T1, B2 bradykinin receptor (Homo sapiens, UniProt P30411); assay type: cell membranes, Membrane; conditions: chem-1; also: in other assays of this panel Not Active means under 50% inhibition at 10 µM
T1 sequence (P30411 whole entry): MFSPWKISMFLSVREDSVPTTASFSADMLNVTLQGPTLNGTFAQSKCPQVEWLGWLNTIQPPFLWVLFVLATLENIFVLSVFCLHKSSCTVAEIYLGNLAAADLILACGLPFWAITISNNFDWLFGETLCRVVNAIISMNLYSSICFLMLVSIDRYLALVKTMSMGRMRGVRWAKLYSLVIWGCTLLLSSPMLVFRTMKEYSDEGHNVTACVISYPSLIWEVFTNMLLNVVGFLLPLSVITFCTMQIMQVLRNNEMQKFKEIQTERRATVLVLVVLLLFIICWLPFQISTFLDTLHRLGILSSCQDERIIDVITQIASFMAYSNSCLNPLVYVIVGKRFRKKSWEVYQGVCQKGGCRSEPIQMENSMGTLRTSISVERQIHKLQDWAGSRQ

[2] = target: T2, Calcitonin receptor (Homo sapiens, UniProt P30988); assay type: cell membranes, Membrane; conditions: t47d; also: in other assays of this panel Not Active means under 50% inhibition at 10 µM
T2 sequence (P30988 whole entry): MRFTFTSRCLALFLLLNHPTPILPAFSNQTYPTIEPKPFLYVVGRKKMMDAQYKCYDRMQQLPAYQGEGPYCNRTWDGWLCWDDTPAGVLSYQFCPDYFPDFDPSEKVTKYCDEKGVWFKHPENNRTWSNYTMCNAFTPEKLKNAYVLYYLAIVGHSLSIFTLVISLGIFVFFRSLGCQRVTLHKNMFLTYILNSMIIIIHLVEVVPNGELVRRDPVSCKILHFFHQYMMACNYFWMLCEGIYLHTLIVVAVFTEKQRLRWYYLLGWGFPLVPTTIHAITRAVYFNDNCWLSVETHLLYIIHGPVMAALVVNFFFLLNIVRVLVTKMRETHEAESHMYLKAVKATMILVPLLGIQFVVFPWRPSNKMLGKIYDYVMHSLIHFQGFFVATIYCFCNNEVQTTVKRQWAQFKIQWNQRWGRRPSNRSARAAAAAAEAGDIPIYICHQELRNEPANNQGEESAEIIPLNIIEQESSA

[3] = DRUGMATRIX: Calcium Channel Type L, Phenylalkylamine radioligand binding (ligand: [3H] (-)-Desmethoxyverapamil (D-888)); assay type: cell membranes, Rattus norvegicus, Wistar, Brain, Membrane; conditions: Not Active = under 50% inhibition at 10 µM
[4] = target: T3, C-X-C chemokine receptor type 1 (Homo sapiens, UniProt P25024); also: in other assays of this panel Not Active means under 50% inhibition at 10 µM
T3 sequence (P25024 whole entry): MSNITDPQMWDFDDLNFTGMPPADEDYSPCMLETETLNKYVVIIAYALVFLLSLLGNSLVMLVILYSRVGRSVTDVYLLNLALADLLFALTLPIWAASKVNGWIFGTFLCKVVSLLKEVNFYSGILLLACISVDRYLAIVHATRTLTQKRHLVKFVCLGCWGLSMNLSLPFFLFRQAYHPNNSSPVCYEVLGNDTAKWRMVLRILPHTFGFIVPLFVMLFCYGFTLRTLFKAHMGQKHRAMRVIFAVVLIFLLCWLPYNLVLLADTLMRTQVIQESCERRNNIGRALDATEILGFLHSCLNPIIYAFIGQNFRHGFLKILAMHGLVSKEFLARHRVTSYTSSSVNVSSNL

[5] = DRUGMATRIX: GABAA, Muscimol, Central radioligand binding (ligand: [3H] Muscimol); assay type: cell membranes, Rattus norvegicus, Wistar, Brain, Membrane; conditions: Not Active = under 50% inhibition at 10 µM
[6] = target: Nitric oxide synthase 1 (Rattus norvegicus, UniProt P29476); assay type: tissue-based, Cerebellum; also: in other assays of this panel Not Active means under 50% inhibition at 10 µM
[7] = target: Kappa-type opioid receptor (Homo sapiens, UniProt P41145); test: DRUGMATRIX: Opiate kappa (OP2, KOP) radioligand binding (ligand: [3H] Diprenorphine); assay type: cell membranes, HEK293, Membrane; conditions: Not Active = under 50% inhibition at 10 µM
[8] = target: T4, Cytochrome P450 1A2 (Homo sapiens, UniProt P05177); conditions: bti-tn-5b1-4; also: in other assays of this panel Not Active means under 50% inhibition at 10 µM
T4 sequence (P05177 whole entry): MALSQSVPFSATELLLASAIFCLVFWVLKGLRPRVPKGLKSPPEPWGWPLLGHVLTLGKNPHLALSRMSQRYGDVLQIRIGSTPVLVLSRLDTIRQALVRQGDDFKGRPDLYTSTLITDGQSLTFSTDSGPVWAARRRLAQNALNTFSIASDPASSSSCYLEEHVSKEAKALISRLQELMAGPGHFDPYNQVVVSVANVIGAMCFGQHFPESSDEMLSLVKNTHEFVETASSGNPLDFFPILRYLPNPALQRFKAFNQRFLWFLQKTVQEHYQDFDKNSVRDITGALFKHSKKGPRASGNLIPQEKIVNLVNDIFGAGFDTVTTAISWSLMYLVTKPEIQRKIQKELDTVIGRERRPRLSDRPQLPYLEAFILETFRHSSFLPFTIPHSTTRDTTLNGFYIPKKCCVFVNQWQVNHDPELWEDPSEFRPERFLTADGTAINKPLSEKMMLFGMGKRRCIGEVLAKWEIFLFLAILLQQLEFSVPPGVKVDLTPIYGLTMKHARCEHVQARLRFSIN

Kappa-type opioid receptor, sequence (P41145 whole entry): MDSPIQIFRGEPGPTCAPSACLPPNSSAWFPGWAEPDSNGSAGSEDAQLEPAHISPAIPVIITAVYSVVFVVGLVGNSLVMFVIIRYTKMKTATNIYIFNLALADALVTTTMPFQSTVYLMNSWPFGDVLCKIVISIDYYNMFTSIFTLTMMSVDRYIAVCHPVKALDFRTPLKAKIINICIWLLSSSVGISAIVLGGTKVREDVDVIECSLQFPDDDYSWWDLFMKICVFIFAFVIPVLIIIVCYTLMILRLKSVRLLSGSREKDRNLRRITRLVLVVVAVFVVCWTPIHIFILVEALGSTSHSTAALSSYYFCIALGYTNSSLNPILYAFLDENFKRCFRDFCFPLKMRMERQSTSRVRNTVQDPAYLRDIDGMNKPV
Nitric oxide synthase 1, sequence (P29476 whole entry): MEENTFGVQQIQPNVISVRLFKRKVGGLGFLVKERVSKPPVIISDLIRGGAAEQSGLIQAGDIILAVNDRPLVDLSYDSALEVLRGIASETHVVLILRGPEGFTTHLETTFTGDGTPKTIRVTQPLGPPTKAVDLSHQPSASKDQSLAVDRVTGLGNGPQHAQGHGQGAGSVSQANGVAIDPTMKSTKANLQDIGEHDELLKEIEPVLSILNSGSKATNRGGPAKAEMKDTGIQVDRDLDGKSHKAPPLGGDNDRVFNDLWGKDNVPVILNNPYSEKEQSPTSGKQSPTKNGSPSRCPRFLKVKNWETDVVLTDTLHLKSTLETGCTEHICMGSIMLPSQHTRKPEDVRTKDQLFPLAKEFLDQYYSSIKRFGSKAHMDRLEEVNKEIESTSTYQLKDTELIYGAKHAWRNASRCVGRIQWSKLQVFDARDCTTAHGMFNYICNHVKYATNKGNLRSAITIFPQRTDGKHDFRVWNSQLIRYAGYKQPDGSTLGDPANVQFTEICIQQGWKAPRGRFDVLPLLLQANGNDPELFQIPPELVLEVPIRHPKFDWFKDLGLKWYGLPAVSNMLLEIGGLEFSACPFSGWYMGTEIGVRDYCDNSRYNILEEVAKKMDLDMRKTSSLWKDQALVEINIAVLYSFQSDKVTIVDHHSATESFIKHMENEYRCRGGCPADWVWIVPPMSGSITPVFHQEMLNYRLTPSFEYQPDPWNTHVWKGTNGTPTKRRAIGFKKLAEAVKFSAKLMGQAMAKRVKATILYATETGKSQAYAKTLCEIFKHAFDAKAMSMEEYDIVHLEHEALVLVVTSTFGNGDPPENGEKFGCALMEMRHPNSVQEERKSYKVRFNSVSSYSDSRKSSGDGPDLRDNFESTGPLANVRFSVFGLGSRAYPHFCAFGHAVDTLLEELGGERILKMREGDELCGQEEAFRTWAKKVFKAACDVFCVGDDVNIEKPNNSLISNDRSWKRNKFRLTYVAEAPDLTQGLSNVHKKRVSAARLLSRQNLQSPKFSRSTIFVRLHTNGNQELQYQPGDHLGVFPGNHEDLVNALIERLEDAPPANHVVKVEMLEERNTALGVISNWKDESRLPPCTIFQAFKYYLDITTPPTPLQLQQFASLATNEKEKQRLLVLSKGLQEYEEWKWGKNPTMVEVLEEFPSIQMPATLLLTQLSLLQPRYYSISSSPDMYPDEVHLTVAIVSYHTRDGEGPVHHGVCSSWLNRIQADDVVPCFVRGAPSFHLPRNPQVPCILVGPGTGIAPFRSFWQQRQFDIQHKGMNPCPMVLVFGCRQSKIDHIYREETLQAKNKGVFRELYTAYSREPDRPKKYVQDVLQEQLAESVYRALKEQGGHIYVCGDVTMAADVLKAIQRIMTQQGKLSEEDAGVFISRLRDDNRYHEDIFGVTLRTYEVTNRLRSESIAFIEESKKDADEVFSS

| SMILES | IC50 [1] | IC50 [2] | IC50 [3] | Ki [3] | IC50 [4] | IC50 [5] | Ki [5] | IC50 [6] | IC50 ([7]; hek293) | IC50 [8] | Ki [8] | IC50 ([3]; read-out: IC50) [µM] | Ki ([3]; read-out: Ki) [µM] | Ki [7] [µM] | IC50 ([7]; read-out: IC50) [µM] |
| --- | --- | --- | --- | --- | --- | --- | --- | --- | --- | --- | --- | --- | --- | --- | --- |
| CN(C(=O)CCCOc1ccc2[nH]c(=O)ccc2c1)C1CCCCC1 [CILOSTAMIDE] | Not Active | Not Active | Not Active | Not Active | Not Active | Not Active | Not Active | Not Active | Not Active | Not Active | Not Active |  |  |  |  |
| CC(C)(Oc1ccc(C2CC2(Cl)Cl)cc1)C(=O)O (centres undefined) [CIPROFIBRATE] | Not Active | Not Active | Not Active | Not Active | Not Active | Not Active | Not Active | Not Active | Not Active | Not Active | Not Active |  |  |  |  |
| Nc1nc(Cl)nc2c1ncn2[C@H]1C[C@H](O)[C@@H](CO)O1 [CLADRIBINE] | Not Active | Not Active | Not Active | Not Active | Not Active | Not Active | Not Active | Not Active | Not Active | Not Active | Not Active |  |  |  |  |
| CC[C@H]1OC(=O)[C@H](C)[C@@H](O[C@H]2C[C@@](C)(OC)[C@@H](O)[C@H](C)O2)[C@H](C)[C@@H](O[C@@H]2O[C@H](C)C[C@H](N(C)C)[C@H]2O)[C@](C)(OC)C[C@@H](C)C(=O)[C@H](C)[C@@H](O)[C@]1(C)O [CLARITHROMYCIN] | Not Active | Not Active | Not Active | Not Active | Not Active | Not Active | Not Active | Not Active | Not Active | Not Active | Not Active |  |  |  |  |
| O=C(O)c1cc(=O)c2c(OCC(O)COc3cccc4oc(C(=O)O)cc(=O)c34)cccc2o1 [CROMOLYN] | Not Active | Not Active | Not Active | Not Active | Not Active | Not Active | Not Active | Not Active | Not Active | Not Active | Not Active |  |  |  |  |
| O=P1(N(CCCl)CCCl)NCCCO1 (centres undefined) [CYCLOPHOSPHAMIDE ANHYDROUS] | Not Active | Not Active | Not Active | Not Active | Not Active | Not Active | Not Active | Not Active | Not Active | Not Active | Not Active |  |  |  |  |
| CC(=O)O[C@]1(C(C)=O)CC[C@H]2[C@@H]3C=C(Cl)C4=CC(=O)[C@@H]5C[C@@H]5[C@]4(C)[C@H]3CC[C@@]21C [CYPROTERONE ACETATE] | Not Active | Not Active | Not Active | Not Active | Not Active | Not Active | Not Active | Not Active | Not Active | Not Active | Not Active |  |  |  |  |
| C#C[C@]1(O)CC[C@H]2[C@@H]3CCC4=Cc5oncc5C[C@]4(C)[C@H]3CC[C@@]21C [DANAZOL] | Not Active | Not Active |  |  | Not Active | Not Active | Not Active | Not Active |  | Not Active | Not Active | 14.6 | 14.2 | 6.21 | 15.5 |
| CCN[C@@H](C)Cc1cccc(C(F)(F)F)c1 [DEXFENFLURAMINE] | Not Active | Not Active | Not Active | Not Active | Not Active | Not Active | Not Active | Not Active | Not Active | Not Active | Not Active |  |  |  |  |
| C[C@H](C(=O)O)c1cccc(C(=O)c2ccccc2)c1 [DEXKETOPROFEN] | Not Active | Not Active | Not Active | Not Active | Not Active | Not Active | Not Active | Not Active | Not Active | Not Active | Not Active |  |  |  |  |
| Cc1c(N(C)CS(=O)(=O)[O-])c(=O)n(-c2ccccc2)n1C.[Na+] [DIPYRONE SODIUM] | Not Active | Not Active | Not Active | Not Active | Not Active | Not Active | Not Active | Not Active | Not Active | Not Active | Not Active |  |  |  |  |
| CC(CCc1ccc(O)cc1)NCCc1ccc(O)c(O)c1 (centres undefined) [DOBUTAMINE] | Not Active | Not Active | Not Active | Not Active | Not Active | Not Active | Not Active | Not Active | Not Active | Not Active | Not Active |  |  |  |  |
| CCn1cc(C(=O)O)c(=O)c2cc(F)c(N3CCNCC3)nc21 [ENOXACIN] | Not Active | Not Active | Not Active | Not Active | Not Active | Not Active | Not Active | Not Active | Not Active | Not Active | Not Active |  |  |  |  |
| CCC(=O)O[C@H]1[C@H](O[C@@H]2[C@@H](C)[C@H](O[C@H]3C[C@@](C)(OC)[C@@H](O)[C@H](C)O3)[C@@H](C)C(=O)O[C@H](CC)[C@@](C)(O)[C@H](O)[C@@H](C)C(=O)[C@H](C)C[C@@]2(C)O)O[C@H](C)C[C@@H]1N(C)C [ERYTHROMYCIN PROPIONATE] | Not Active | Not Active | Not Active | Not Active | Not Active | Not Active | Not Active | Not Active | Not Active | Not Active | Not Active |  |  |  |  |
| C=C(CC)C(=O)c1ccc(OCC(=O)O)c(Cl)c1Cl [ETHACRYNIC ACID] | Not Active | Not Active | Not Active | Not Active | Not Active | Not Active | Not Active | Not Active | Not Active | Not Active | Not Active |  |  |  |  |
| C#C[C@]1(O)CC[C@H]2[C@@H]3CCc4cc(O)ccc4[C@H]3CC[C@@]21C [ETHINYL ESTRADIOL] | Not Active | Not Active |  |  | Not Active | Not Active | Not Active | Not Active |  | Not Active | Not Active | 6.99 | 6.79 | 10.4 | 25.9 |
| OCCO [ETHYLENE GLYCOL] | Not Active | Not Active | Not Active | Not Active | Not Active | Not Active | Not Active | Not Active | Not Active | Not Active | Not Active |  |  |  |  |
